# According to patent US4303674A, “Substituted decalins, their preparation and use” (Beecham Group Limited, priority 1979, dated 1981):
# Entries after “also recorded” stand apart in the source; their conditions may differ.
# Key:
# [1] = system: croton oil-induced inflammation of the ear; test: croton oil model of topical anti-inflammatory activity, dose response (1% croton oil in tetrahydrofuran); type: in vivo, rat; conditions: for Treated Ear Wt mg ± s.e.: normal control 98.5, inflamed control 126.1; for Untreated Ear Wt mg ± s.e.: normal control 99.1, inflamed control 118.7; for ED50: 1% croton oil in tetrahydrofuran
# Excerpt: 3. A direct comparison of the activity of Compound (12) and Compound (5) in the croton oil model of topical anti-inflammatory activity
# [2] = system: croton oil-induced inflammation of the rat ear; test: topical anti-inflammatory model, croton oil irritant solution on rat ears (based on Fregnan & Torsello 1975); type: in vivo, Rats, Charles River Wistar strain, male; conditions: for reduction of the increase in ear weight / activity (in words): topical
# Procedure: 1. Compounds (5) and (6) were tested for anti-inflammatory activity in a topical model based on that described by Fregnan G. B. & Torsello, A. L. (1975) Current Therapeutic Research 17, No. 4, 375-381.
# In the test the activity of the novel compounds was compared with that of naproxen. In outline the method is as follows:
# Rats, Charles River Wistar strain, .male. 10/group. Weight range 220-260 g.
# Irritant solution applied consists of 74% diethyl ether (20% pyridine, 5% dist. H2 O, 1% croton oil. 0.05 ml is placed on each ear, compound being included in the irritant solution on one ear. 6 hours later the ears are removed by cutting along the hairline and weighed.
# -ve controls--no irritant solution.
# +ve controls--irritant solution on both ears.
# [3] = system: cantharidin-induced inflammation of the rat ear; test: anti-inflammatory test induced by the application of cantharidin to the rat ear (Boris & Hurley 1977); type: in vivo, male Wistar rats; conditions: for Untreated Ear Wt mg ± s.e.: normal control 92.9, inflamed control 146.3; for Treated Ear Wt mg ± s.e.: normal control 95.0, inflamed control 162.0
# Procedure: 2. Activity of Compound (5) in an anti-inflammatory test induced by the application of cantharidin to the rat ear
# This model developed by Boris A and Hurley M., (1977) J. Invest. Dermatology, 68, 161-164 is claimed to be selective for the anti-inflammatory activity of corticosteroids. Groups of ten male Wistar rats received 0.05 ml per ear of a solution of 400 μg of cantharidin plus or minus compound in tetrahydrofuran. […]
# [4] = 2 mg/rat, first experiment (compounds 5, 6, naproxen), -ve control 128.4, +ve control 163.2, 6 hours
# [5] = 2 mg/rat, first experiment, -ve control 122.5, +ve control 151.8, 6 hours
# [6] = 2 mg/rat, first experiment, 6 hours
SMILES,Treated Ear Wt mg ± s.e. ([1]; 1 mg/ear) [mg],Untreated Ear Wt mg ± s.e. ([1]; 1 mg/ear) [mg],Treated Ear % Inhibition ([1]; 1 mg/ear) [%],Untreated Ear % Inhibition ([1]; 1 mg/ear) [%],Treated Ear Wt mg ± s.e. ([1]; 2 mg/ear) [mg],Untreated Ear Wt mg ± s.e. ([1]; 2 mg/ear) [mg],Treated Ear % Inhibition ([1]; 2 mg/ear) [%],Untreated Ear % Inhibition ([1]; 2 mg/ear) [%],Treated Ear Wt mg ± s.e. ([1]; 4 mg/ear) [mg],Untreated Ear Wt mg ± s.e. ([1]; 4 mg/ear) [mg],Treated Ear % Inhibition ([1]; 4 mg/ear) [%],Untreated Ear % Inhibition ([1]; 4 mg/ear) [%],ED50 [1] [mg/ear],"Mean weight of Treated Ear [2, 4] [m.g.]","Mean weight of Untreated Ear [2, 5] [m.g.]","Treated Ear, % in parentheses (reduction of ear weight increase vs +ve control) [2, 6] [%]","Untreated Ear, % in parentheses (reduction of ear weight increase vs +ve control) [2, 6] [%]",reduction of the increase in ear weight / activity (in words) [2],Untreated Ear Wt mg ± s.e. ([3]; 4 mg/ear) [mg],Treated Ear Wt mg ± s.e. ([3]; 4 mg/ear) [mg],other results
"CC(=O)CCC1CCC2=CC(=O)CCC2(C)C1 (stereo not shown) [Compound (5), 4a-Methyl-6-(3'-oxobutyl)-2,3,4,4a,5,6,7,8-octahydro-2-naphthalenone]",124.5 ± 4.6,119.9 ± 4.7,6,-6,116.4 ± 3.8,119.9 ± 5.1,35,-6,108.2 ± 2.8,115.5 ± 5.6,65,16,2.8,135.4 ± 3.3,169.0 ± 7.4,80,-59,significantly reduced the increase in ear weight brought about by the irritant solution; also recorded: The activity was at the same dose as that of naproxen,134.3,140.5,Treated Ear % Inhibition ([3]; 4 mg/ear): 32%; Untreated Ear % Inhibition ([3]; 4 mg/ear): 22%
CC(=O)CCC1CCC2=CC(=O)C=CC2(C)C1 (stereo not shown) [Compound (6)],–,–,–,–,–,–,–,–,–,–,–,–,–,134.3 ± 2.3,159.1 ± 5.1,83,-25,appeared equi-active with Compound (5),–,–,–
"CC(=O)CCC1CCC2=CC(=O)CCC2C1 (stereo not shown) [Compound (12), 6-(3'-Oxobutyl)-2,3,4,4a,5,6,7,8-octahydronaphthalene-2-one]",116.1 ± 4.6,112.6 ± 5.5,36,31,109.8 ± 3.2,117.0 ± 2.8,59,9,106.3 ± 3.4,120.6 ± 4.5,72,-10,1.6,–,–,–,–,–,–,–,"potency relative to Compound (5) ([1]; dose response against 1% croton oil in tetrahydrofuran): of the order of two fold more potent than Compound (5); Mean weight of Treated Ear ([2]; 4 mg/rat, second experiment (compound 12), -ve control 127.0, +ve control 152.2): 136.9 ± 2.9 m.g.; Mean weight of Untreated Ear ([2]; 4 mg/rat, second experiment, -ve control 130.1, +ve control 159.4): 148.0 ± 3.9 m.g.; Treated Ear, % in parentheses (reduction of ear weight increase vs +ve control) ([2]; 4 mg/rat, second experiment): 61%; Untreated Ear, % in parentheses (reduction of ear weight increase vs +ve control) ([2]; 4 mg/rat, second experiment): 51%"
C[C@]12CCC(=O)C=C1CC[C@@H]1[C@@H]2[C@@H](O)C[C@@]2(C)[C@H]1CC[C@]2(O)C(=O)CO [Hydrocortisone],–,–,–,–,–,–,–,–,–,–,–,–,–,–,–,–,–,–,–,–,Untreated Ear Wt mg ± s.e. ([3]; 2 mg/ear): 142.0 mg; Treated Ear Wt mg ± s.e. ([3]; 2 mg/ear): 133.1 mg; Treated Ear % Inhibition ([3]; 2 mg/ear): 43%; Untreated Ear % Inhibition ([3]; 2 mg/ear): 8%
"COc1ccc2cc([C@H](C)C(=O)O)ccc2c1 [Naproxen, reference compound]",–,–,–,–,–,–,–,–,–,–,–,–,–,139.5 ± 3.0,162.2 ± 4.9,68,-35,–,145.0,184.8,"Mean weight of Treated Ear ([2]; 2 mg/rat, second experiment (with compound 12), -ve control 127.0, +ve control 152.2): 141.2 ± 3.7 m.g.; Mean weight of Untreated Ear ([2]; 2 mg/rat, second experiment, -ve control 130.1, +ve control 159.4): 155.9 ± 4.1 m.g.; Treated Ear, % in parentheses (reduction of ear weight increase vs +ve control) ([2]; 2 mg/rat, second experiment): 44%; Untreated Ear, % in parentheses (reduction of ear weight increase vs +ve control) ([2]; 2 mg/rat, second experiment): 12%; Treated Ear % Inhibition ([3]; 4 mg/ear): -34%; Untreated Ear % Inhibition ([3]; 4 mg/ear): 2%"
